Data published in ChEMBL document CHEMBL1201862, “PubChem BioAssay data set” (2004).
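Values below derive from 48-hour exposures of cells grown in 96-well plates, with endpoints linearly interpolated between the two concentrations bracketing the appropriate inhibition level. GI50: concentration for 50% inhibition of growth.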 Activity calls are given as the source filed them. No stated cut-off is given here; in the data, active = GI50 up to about 1.1 µM and inactive = higher.

Assays:
Test in all cases: DTP human tumour cell line panel, 48 h
HT-29 = tested on: HT-29
HCT-15 = tested on: HCT-15
NCI-H23 = tested on: NCI-H23
SK-MEL-5 = tested on: SK-MEL-5
UO-31 = tested on: UO-31
U-251 = tested on: U-251
SF-268 = tested on: SF-268
SF-539 = tested on: SF-539
TK-10 = tested on: TK-10
SF-295 = tested on: SF-295
COLO 205 = tested on: COLO 205
K562 = tested on: K562
SK-MEL-28 = tested on: SK-MEL-28
786-0 = tested on: 786-0
M14 = tested on: M14
HCC 2998 = tested on: HCC 2998
HL-60 = tested on: HL-60
NCI-H226 = tested on: NCI-H226
EKVX = tested on: EKVX
SR = tested on: SR

| Structure (SMILES) | GI50 (HT-29) | GI50 (HCT-15) [µM] | GI50 (NCI-H23) | GI50 (SK-MEL-5) | GI50 (UO-31) | GI50 (U-251) | GI50 (SF-268) | GI50 (SF-539) | GI50 (TK-10) | GI50 (SF-295) | GI50 (COLO 205) | GI50 (K562) | GI50 (SK-MEL-28) | GI50 (786-0) | GI50 (M14) | GI50 (HCC 2998) | GI50 (HL-60) | GI50 (NCI-H226) | GI50 (EKVX) | GI50 (SR) |
| --- | --- | --- | --- | --- | --- | --- | --- | --- | --- | --- | --- | --- | --- | --- | --- | --- | --- | --- | --- | --- |
| COC(=O)N1C=Cc2c(c(C)c3c([nH]c4ccccc43)c2C)C1C (centres undefined) | 11.3 µM (inactive) | 10.6 | 17.7 µM (inactive) | 15.3 µM (inactive) | 18.5 µM (inactive) | 16 µM (inactive) | 18.2 µM (inactive) | 17.1 µM (inactive) | 19.6 µM (inactive) | 13.7 µM (inactive) | 18.7 µM (inactive) | 6.19 µM (inactive) | 15.5 µM (inactive) | 13.2 µM (inactive) | 29.6 µM (inactive) | 16.8 µM (inactive) | 19.2 µM (inactive) | 17.6 µM (inactive) | 14 µM (inactive) |  |
| COc1ccc(CC2(O)C3CC4CCC2C4C3)cc1 (centres undefined) | 58.1 µM (inactive) | > 100 | 64.4 µM (inactive) | 31.9 µM (inactive) | 49.7 µM (inactive) | > 100 µM (inactive) | > 100 µM (inactive) |  | 69.3 µM (inactive) | 42.6 µM (inactive) | 74.3 µM (inactive) | 49.1 µM (inactive) | > 100 µM (inactive) | > 100 µM (inactive) | > 100 µM (inactive) |  | 51.1 µM (inactive) | 88.1 µM (inactive) | 49.8 µM (inactive) | 58.7 µM (inactive) |
| CN(C)CCNC(=O)c1cccc2c1nc(-c1cccnc1)c1ccccc12 | 3.76 µM (inactive) | 3.74 | 4.24 µM (inactive) | 3.37 µM (inactive) | 2.69 µM (inactive) | 3.75 µM (inactive) | 6.05 µM (inactive) | 2.65 µM (inactive) | 2.25 µM (inactive) | 4.72 µM (inactive) | 4.47 µM (inactive) | 5.98 µM (inactive) | 11.1 µM (inactive) | 5.04 µM (inactive) | 6.67 µM (inactive) | 6.9 µM (inactive) | 1.97 µM (inactive) | 2.3 µM (inactive) | 4.24 µM (inactive) |  |
| CCOC(=O)C(NC(=O)c1cccc(Cl)c1)(Nc1ccc(S(=O)(=O)Nc2cc(C)on2)cc1)C(F)(F)F (centres undefined) | > 100 µM (inactive) | > 100 | > 100 µM (inactive) | > 100 µM (inactive) | > 100 µM (inactive) | > 100 µM (inactive) | > 100 µM (inactive) | > 100 µM (inactive) | > 100 µM (inactive) | 14.4 µM (inactive) | > 100 µM (inactive) | > 100 µM (inactive) | > 100 µM (inactive) | > 100 µM (inactive) | > 100 µM (inactive) | > 100 µM (inactive) | > 100 µM (inactive) | > 100 µM (inactive) | > 100 µM (inactive) |  |
| COC(=O)c1s/c(=N\C(=S)N(C)C)n(-c2ccccc2)c1C(=O)OC | 57 µM (inactive) | > 100 | > 100 µM (inactive) | > 100 µM (inactive) | > 100 µM (inactive) | > 100 µM (inactive) | > 100 µM (inactive) | > 100 µM (inactive) | > 100 µM (inactive) | > 100 µM (inactive) | > 100 µM (inactive) | > 100 µM (inactive) | > 100 µM (inactive) | > 100 µM (inactive) | > 100 µM (inactive) | > 100 µM (inactive) | 32.6 µM (inactive) | > 100 µM (inactive) | > 100 µM (inactive) |  |
